Where two headings read alike, the source gives them in different places.
How the values were obtained:
[1] = target: T1, CRAC channel (endogenous SOC in HEK293 cells) (Homo sapiens, UniProt Q96D31); experiment: HEK Calcium Influx Assay (FLIPR); format: cell-based
T1 construct: endogenous in cells; host or cells: HEK293 (ECACC)
Description: The effect of compounds of the invention on intracellular [Ca^2+] was tested in the HEK293 cell line (ECACC). HEK293 cells were cultured in DMEM/F12/Glutamax (Gibco) containing 10% FCS (Gibco), and maintained at 37° C., 5% CO2. Cell were split twice a week [3*10^6 (Mon-Thu) and 1*10^6 (Thu-Mon) cells/50 ml medium in T-175 ZK culture flasks, respectively]. Twenty four hours pre-experiment, cells were seeded on 96 well plates (Poly-D-Lysine 96well Black/Clear Plate, BD Biocoat REF 356640) at a density of 40,000 cells/well in DMEM/F12 (Gibco) containing 10% FCS (Gibco), and maintained at 37° C., 5% CO2. Prior to store-depletion, cell culture medium was removed and cells were loaded with the a Calcium-sensitive fluorescent dye comprised within the Calcium-4-assay kit (Molecular Devices) in nominally Ca^2+-free HBS buffer (140 mM NaCl, 4 mM KCl, 0.2 mM MgCl2, 11 mM D-glucose, and 10 mM HEPES, pH 7.4) according to manufacturer's instruction for 60 min at 37° C., 5% CO2. Passive depletion of intracellular Ca^2+-stores was then triggered by employing the SERCA inhibitor thapsigargin (2 μM final) for 10 min in the dark (RT). To prevent immediate Ca^2+-entry via the activated Store-operated channels (SOCs), cells were maintained in Ca^2+-free HBS buffer comprising 100 μM EGTA during store-depletion. Intracellular changes in [Ca^2+] were subsequently monitored with the FLIPR device (Molecular Devices). In brief, baseline imaging post-store depletion was allowed for 1 min before adjusting the extracellular buffer to 3 mM CaCl2. Increases in intracellular [Ca^2+] due to pre-activated SOC channels were monitored for 15 min until intracellular Ca^2+ levels had declined into a steady-state. Finally, compounds were administered and Ca^2+ signals were recorded for additional 10 min. Inhibition of endogenous SOC in HEK293 cells was quantified employing the average Ca^2+ signal measured from 9.5-10 min post-administration. Zero percent inhibition (MAX) was defined as the Ca^2+ signal recorded from wells to which DMSO-only had been added instead of compound. Hundred percent inhibition (MIN) was defined as the signal obtained from wells in which cells haven't been treated with TG prior to Ca^2+ addition and to which DMSO-only had been added instead of compound. For routine IC50 determinations of compounds, 8 concentrations of a serial dilution (1:3.16) were tested, starting off from 10 μM. Reliable IC50's could consequently be determined only, if they were at least sub 2.5-3 μM.

[2] = tested on: Interleukin-2 (IL-2) production/release in Jurkat T cell line; experiment: Jurkat IL-2 Production Assay; format: cell-based; conditions: Homo sapiens; Jurkat T cells, PHA stimulation 22 hours
Description: Jurkat IL-2 Production Assay
The effect of compounds of the invention on Interleukin-2 (IL-2) production/release was tested in the Jurkat T cell line (ECACC) clone E6-1. Jurkat T cells were cultured in DMEM/F12/Glutamax (Gibco) containing 10% FCS (Gibco), and maintained at 37° C., 5% CO2. Cell were split twice a week [5*10^6 (Mon-Thu) and 1*10^7 (Thu-Mon) cells/50 ml medium in T-175 ZK culture flasks, respectively]. Prior to experiment, cells were seeded on 96 well plates (Cellstar 96 Well; Cat No. 655180, Greiner bio-one) at a density of 5*10^5 cells/well in DMEM/F12/Glutamax (Gibco) containing 10% FCS (Gibco), and incubated for 60 min at 37° C., 5% CO2. Subsequently, compounds were added and cells were allowed to incubate for 30 min at 37° C., 5% CO2. Cells were then stimulated with 15 μg/ml Phytohemagglutinin (PHA; Sigma) for 22 hours at 37° C., 5% CO2. Before sampling of the supernatants, cells were spun down (200*g/5 min/RT). The amount of IL-2 released into the supernatant was quantified with the human IL-2 AlphaLisa kit (Perkin Elmer) according to manufacturer's instructions. Luminescence proximity measurements were carried out in the Synergy H4 reader (BioTek) employing the fluorescence setting of the reader (ex: 680/30 nm; em: 620/40 nm). Inhibition of IL-production/release in/from Jurkat T cells was quantified as follows: Zero percent inhibition (MAX) was defined as the [IL-2] determined in supernatants derived from cells to which PHA & DMSO-only had been added instead of compound. Hundred percent inhibition (MIN) was defined as the [IL-2] determined in supernatants derived from cells that had been pre-treated with 1 μM CyclosporineA (Sigma) before the addition of 15 μg/ml PHA. For routine IC50 determinations of compounds, 8 concentrations of a serial dilution (1:3.16) were tested, starting off from 10 μM.

[3] = numeric values of Table 2, read-out: inhib. [@ 10 μM] FLIPR
[4] = thapsigargin store depletion, read-out: % inhib. [@ 10 μM] FLIPR

T1 sequence (Q96D31 whole entry): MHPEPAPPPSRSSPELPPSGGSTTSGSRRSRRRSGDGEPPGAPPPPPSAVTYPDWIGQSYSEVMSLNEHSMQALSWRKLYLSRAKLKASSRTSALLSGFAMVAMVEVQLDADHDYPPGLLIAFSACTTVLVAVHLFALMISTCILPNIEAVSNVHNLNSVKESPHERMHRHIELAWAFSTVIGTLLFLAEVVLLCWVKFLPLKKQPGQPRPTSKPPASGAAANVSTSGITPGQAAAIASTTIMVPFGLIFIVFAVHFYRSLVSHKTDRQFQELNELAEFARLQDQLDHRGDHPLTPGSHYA

| inhibition at 10 µM [1, 3] [%] | inhibition at 10 µM [1, 4] [%] | IC50 [2] [µM] | SMILES |
| --- | --- | --- | --- |
| 100 | > 70 | 0.5 to 1 | Cc1cc(OC(C)C)ncc1-c1cc(C(=O)Nc2c(F)cccc2F)nn1C [Example 13, N-(2,6-Difluoro-phenyl)-5-(6-isopropoxy-4-methyl-pyridin-3-yl)-1-methyl-1H-pyrazole-3-carboxylic acid amide] |
| – | > 70 | < 0.5 | CCOc1cc(OC)c(-c2cc(C(=O)Nc3c(F)cncc3F)nn2C)cn1 [Example 14, N-(3,5-Difluoro-pyridin-4-yl)-5-(6-ethoxy-4-methoxy-pyridin-3-yl)-1-methyl-1H-pyrazole-3-carboxylic acid amide] |
| – | > 70 | < 0.5 | CCOc1cc(OCC)c(-c2cc(C(=O)Nc3c(F)cncc3F)nn2C)cn1 [Example 15, 5-(4,6-Diethoxy-pyridin-3-yl)-N-(3,5-difluoro-pyridin-4-yl)-1-methyl-1H-pyrazole-3-carboxylic acid amide] |
| – | > 70 | < 0.5 | CCOc1cc(OC)c(-c2cc(C(=O)Nc3c(F)cccc3F)nn2C)cn1 [Example 16, N-(2,6-Difluoro-phenyl)-5-(6-ethoxy-4-methoxy-pyridin-3-yl)-1-methyl-1H-pyrazole-3-carboxylic acid amide] |
| – | > 70 | < 0.5 | CCOc1cc(OCC)c(-c2cc(C(=O)Nc3c(F)cccc3F)nn2C)cn1 [Example 17, 5-(4,6-Diethoxy-pyridin-3-yl)-N-(2,6-difluoro-phenyl)-1-methyl-1H-pyrazole-3-carboxylic acid amide] |
| 121 | > 70 | < 0.5 | Cc1cc(OCC2CCC2)ncc1-c1cc(C(=O)Nc2c(F)cncc2F)nn1C [Example 20, 5-[6-(Cyclobutyl-methoxy)-4-methyl-pyridin-3-yl]-N-(3,5-difluoro-pyridin-4-yl)-1-methyl-1H-pyrazole-3-carboxylic acid amide] |
| 94 | > 70 | 1 to 5 | Cc1cc(OC2COC2)ncc1-c1cc(C(=O)Nc2c(F)cccc2F)nn1C [Example 23, N-(2,6-Difluoro-phenyl)-1-methyl-5-[4-methyl-6-(oxetan-3-yloxy)-pyridin-3-yl]-1H-pyrazole-3-carboxylic acid amide] |
| 87 | > 70 | 1 to 5 | COCCOc1cc(C)c(-c2cc(C(=O)Nc3c(F)cccc3F)nn2C)cn1 [Example 28, N-(2,6-Difluoro-phenyl)-5-[6-(2-methoxy-ethoxy)-4-methyl-pyridin-3-yl]-1-methyl-1H-pyrazole-3-carboxylic acid amide] |
| – | > 70 | 1 to 5 | CCOc1cc(C(F)(F)F)c(-c2cc(C(=O)Nc3c(F)cncc3F)nn2C)cn1 [Example 31, N-(3,5-Difluoro-pyridin-4-yl)-5-[6-ethoxy-4-(trifluoromethyl)-pyridin-3-yl]-1-methyl-1H-pyrazole-3-carboxylic acid amide] |
| – | > 70 | 0.5 to 1 | CCOc1cc(C(F)(F)F)c(-c2cc(C(=O)Nc3c(F)cccc3F)nn2C)cn1 [Example 32, N-(2,6-Difluoro-phenyl)-5-[6-ethoxy-4-(trifluoromethyl)-pyridin-3-yl]-1-methyl-1H-pyrazole-3-carboxylic acid amide] |
| – | > 70 | 1 to 5 | Cc1c(-c2cc(C(=O)Nc3c(F)cccc3F)nn2C)cnc(C2CC2)c1F [Example 33, 5-(6-Cyclopropyl-5-fluoro-4-methyl-pyridin-3-yl)-N-(2,6-difluoro-phenyl)-1-methyl-1H-pyrazole-3-carboxylic acid amide] |
| – | > 70 | 1 to 5 | Cc1c(-c2cc(C(=O)Nc3c(F)cncc3F)nn2C)cnc(C2CC2)c1F [Example 34, 5-(6-Cyclopropyl-5-fluoro-4-methyl-pyridin-3-yl)-N-(3,5-difluoro-pyridin-4-yl)-1-methyl-1H-pyrazole-3-carboxylic acid amide] |

Source: US20150166505A1, “PYRIDINYL-SUBSTITUTED PYRAZOLYL CARBOXAMIDES” (GRÜNENTHAL GMBH, priority 2013, published 2015)
